Here are results for one molecule from patent US12415803B2, “Fused imidazopyridines as reversible inhibitors of Brutons Tyrosine Kinase (BTK)” (Merck Patent GmbH, priority 2018, dated 2025).

Usually IC50 stands for the concentration at which inhibition is half-maximal.

One test addresses full-length human BTK (Homo sapiens (Human), UniProt Q06187). Kind of test: BTK IC50 Enzyme Assay (microfluidic off-chip mobility shift kinase assay).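 Note: Read-out separates phosphorylated peptide product from substrate by their charge-to-mass difference, with IC50 fitted from log inhibitor concentration against percent enzyme activity.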 Format: biochemical. Conditions: Btk Enzymatic IC50 Assay, 90 min at 27 C.
Test [1] addresses T1, Btk (Homo sapiens (Human), UniProt Q06187). Kind of test: Btk PBMC IC50 Cell Assay (anti-IgM-induced CD69 expression on B cells).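 Note: freshly isolated human PBMCs, IC50 from concentration-response of the share of CD19+ cells expressing CD69 after anti-IgM BCR stimulation.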 Conditions: anti-IgM-induced CD69 expression on CD19 positive cells in human PBMCs. The format is cell-based.
The target of test [2] is T1, Btk. Put plainly: Time Dependent Human Whole Blood IC50 Assay. Format: cell-based. Conditions: read-out: Assay C (IC50).

T1 sequence (Q06187 whole entry): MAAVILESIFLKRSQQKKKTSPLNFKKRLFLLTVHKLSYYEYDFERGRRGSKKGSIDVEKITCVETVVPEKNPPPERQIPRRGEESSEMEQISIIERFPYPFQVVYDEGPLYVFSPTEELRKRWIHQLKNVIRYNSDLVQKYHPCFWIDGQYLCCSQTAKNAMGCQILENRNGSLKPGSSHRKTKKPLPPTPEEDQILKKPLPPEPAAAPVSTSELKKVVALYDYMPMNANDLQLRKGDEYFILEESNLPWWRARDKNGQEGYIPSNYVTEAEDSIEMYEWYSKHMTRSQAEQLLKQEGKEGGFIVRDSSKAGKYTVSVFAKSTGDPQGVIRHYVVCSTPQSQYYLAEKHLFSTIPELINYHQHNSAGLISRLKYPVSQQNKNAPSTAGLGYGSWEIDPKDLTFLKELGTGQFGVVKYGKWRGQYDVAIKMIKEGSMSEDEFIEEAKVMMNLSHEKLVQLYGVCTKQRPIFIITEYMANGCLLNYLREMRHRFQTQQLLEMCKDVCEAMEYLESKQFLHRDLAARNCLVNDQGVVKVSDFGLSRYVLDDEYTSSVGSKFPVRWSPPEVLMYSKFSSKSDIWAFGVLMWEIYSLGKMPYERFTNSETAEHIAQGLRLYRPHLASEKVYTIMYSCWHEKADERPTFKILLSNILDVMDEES
full-length human BTK, sequence (Q06187 whole entry): as above

Turning to `Cc1c(-c2nc3c(-c4ccc5c(c4)CCC[C@@H]5NC(=O)c4noc(C(C)(C)C)n4)ccnc3[nH]2)cnn1C(C)C` [Compound 165, 5-tert-Butyl-[1,2,4]oxadiazole-3-carboxylic acid {(S)-6-[2-(1-isopropyl-5-methyl-1H-pyrazol-4-yl)-3H-imidazo[4,5-b]pyridin-7-yl]-1,2,3,4-tetrahydro-naphthalen-1-yl}-amide], the 50% inhibitory concentration (IC50) on full-length human BTK is below 1 nM; on Btk [1] it was 1 to 10 nM; at Btk [2] it was 10 to 100 nM.
